Results as given in US4742172A, “Intermediates for synthesizing pharmaceutically active 3,7-diazabicyclo-(3,3,1)-nonane compounds” (Kali-Chemie Pharma GmbH, priority 1982, dated 1988).

What was measured:
[1] = system: right atrium cordis of guinea pigs; assay: Heart rate of the spontaneously beating, isolated right atrium cordis; set-up: species or system female albino Pirbright-white guinea pigs; conditions: Cavia porcellus, 20 min; 20 minutes after administration; administered as di-tartrate; read-out: FRQ 75% (concentration decreasing heart rate to 75% of initial value)
Method: The direct effect of the active compound on the heart rate (FPQ) was tested on the spontaneously beating, isolated right atrium cordis of female albino Pirbright-white guinea pigs (GP) of the weight class between 300 g. and 400 g. In Table 3 there is given, as FPQ 75%, the concentration in μmole/l. by which a decrease of the heart rate to 75% of the initial value is achieved 20 minutes after administration of the compound to be tested.

[2] = system: left atrium cordis of guinea pigs; assay: Functional refractory period and contractile force of the electrically stimulated left atrium cordis (paired stimulation, method of Govier); set-up: species or system female albino Pirbright-white guinea pigs; conditions: for EC (125%) / IC25: Cavia porcellus, administered as di-tartrate; for EC (125%): 0.3 h, 18 minutes after administration, read-out: FRP 125% (concentration prolonging functional refractory period to 125%); for IC25: left atrium, read-out: F 75% (concentration reducing contractile force to 75% of initial value); for quotient F 75%/FRP 125%: therapeutic index of the anti-arrhythmic action on the isolated organ
Excerpt: 148, No. 1, pages 100-105 (1965). All anti-arrhythmic drugs which at present are used in therapy and which differ in their chemical structure are distinguished by being able to prolong the functional refractory period. In addition thereto said method permits to detect the effects of compounds on the contractile force of the myocardium. […] Said quotient supplies information regarding the therapeutic index of the anti-arrhythmic action of a compound on the isolated organ. See P. Greef in Verhandlung der Deutschen Gesellschaft fuer Kreislaufforschung vol. 35, pages 88-97 (1969).

in vivo = conditions: mouse, po, peroral administration, mice
anesthetized rats = assay: Effect on heart rate, systolic blood pressure and double product (myocardial oxygen consumption, method of Neill); type: in vivo; conditions: administered as ditartrate; for Change DP: vs initial value
Method: The influence of the active compounds according to the present invention on myocardial oxygen consumption has been investigated in animal models and determined according to the method of Neill as described by W. A. Neill, H. H. Levine, R. J. Wagman, and P. Gorlin in Circulation Research, Vol. 12, page 163 (1963). The blood circulation measurements which are required for these tests, namely, systolic blood pressure and heart rate, were determined according to the design of experimental procedure as described by G. Buschmann, W. Schumacher, R. Budden, and U. G. Kuehl in J. Cardiovasc. Pharmacol., Vol. 2, pages 777-795 (1980). As is evident from the following Table 1, the active compound reduces the product* of heart rate and systolic blood pressure. Thus, the tested compound reduces the consumption of oxygen to be supplied to the heart. This effect is observed in intravenous administration (i.v.) as well as on intraduodenal administration (i.d.) and is to be attributed to the action of the compound tested.
Effect upon heart rate (FRQ), systolic blood pressure (Ps)
and the double product (DP) determined on anesthetized rats

[3] = system: aconitine-induced ventricular extrasystoles in rats; assay: Anti-arrhythmic activity, aconitine test in rats (method of Raschak); type: in vivo, male Wistar rats; conditions: for Change in time to occurrence of ES: vs vehicle control
Method: When administering aconitine to rats by continuous intravenous infusion, there are observed in the electrocardiogram considerable disturbances in the heartbeat, such as, for instance, ventricular extrasystoles. The tested animals were male Wistar rats of the weight class between 250 g. and 350 g. The influence of an active compound according to the present invention upon such rats after an aconitine infusion was determined according to the method of Raschak as described by M. Raschak in Arzneim. Forsch. vol. 25, No. 4, pages 639-641 (1975). […] The active compound was administered intravenously in the form of an isotonic sodium chloride solution, i.e. the vehicle, in a dose of 6.0 μmole/kg. The dose administered is one twenthieth of the lethal dose (LD50) as determined on mice. […] After intravenous administration of the active compound to be tested and of the control solution, the aconitine solution was administered by infusion in an amount which was constant per time unit. The period of time was measured within which ventricular extrasystoles (ES) were observed. Said period of time, in minutes, is given in Table 2 as well as the difference in the period of time observed on administering the test compound and the control solution.
One of the active compounds tested is the compound of Example 3, No. 302, i.e., N,N-di-n-butyl-9,9-dimethyl-3,7-diaza bicyclo-(3,3,1)-nonane as described hereinafter. There are also given the results obtained by testing an equitoxic amount of the drug known under the trademark "Lidocain", i.e., 2-(diethylamino)-N-(2,6-dimethyl phenyl)-acetamide.
Anti-arrhythmic activity determined by the […]

SMILES | IC25 [1] [µM] | EC (125%) [2] [µM] | IC25 [2] [µM] | quotient F 75%/FRP 125% [2] | LD50 (in vivo) [µmol/kg] | DP (double product of heart rate and systolic blood pressure) (anesthetized rats; 13.5 μmole/kg i.v., initial value 39) [mm.Hg/min. × 1000] | Ps (systolic blood pressure) (anesthetized rats; 13.5 μmole/kg i.v., initial value 104) [mm.Hg] | FRQ (heart rate) (anesthetized rats; 13.5 μmole/kg i.v., initial value 372) [min⁻¹] | Change DP (anesthetized rats; 13.5 μmole/kg i.v.) [%] | DP (double product of heart rate and systolic blood pressure) (anesthetized rats; 100 μmole/kg i.d., initial value 41) [mm.Hg/min. × 1000] | Ps (systolic blood pressure) (anesthetized rats; 100 μmole/kg i.d., initial value 101) [mm.Hg] | FRQ (heart rate) (anesthetized rats; 100 μmole/kg i.d., initial value 406) [min⁻¹] | Change DP (anesthetized rats; 100 μmole/kg i.d.) [%] | Time to occurrence of ES (ventricular extrasystoles) ([3]; 6.0 μmole/kg i.v., vehicle control 6.7 min, administered as di-tartrate) [min] | Change in time to occurrence of ES ([3]; 6.0 μmole/kg i.v., administered as di-tartrate) | Time to occurrence of ES (ventricular extrasystoles) ([3]; 10.0 μmole/kg i.v. (equitoxic amount), vehicle control 6.3 min) [min] | Change in time to occurrence of ES ([3]; 10.0 μmole/kg i.v. (equitoxic amount))
CN1CC2CN(C)CC(C1)C2(C)C [Comparative compound, N,N',9,9-tetramethyl diaza bicyclo-(3,3,1)-nonane, reference compound] | ~215 | 122 | ~215 | about 2 |  |  |  |  |  |  |  |  |  |  |  |  | 
CCCCN1CC2CN(CCCC)CC(C1)C2(C)C [Example 3, No. 302, N,N'-di-n-butyl-9,9-dimethyl-3,7-diaza bicyclo-(3,3,1)-nonane] | 3 | 1 | 104 | 104 | 1040 | 25 | 147 | 174 | -36 | 30 | 125 | 238 | -27 | 8.2 | +23% |  | 
CCN(CC)CC(=O)Nc1c(C)cccc1C [Lidocain, 2-(diethylamino)-N-(2,6-dimethylphenyl)-acetamide, reference compound] |  |  |  |  |  |  |  |  |  |  |  |  |  |  |  | 6.6 | +5%
